25 compounds from patent publication US7816522B2, “Triazolone derivatives” (Eisai Co., Ltd., priority 2006, dated 2010) can be followed below.

As a reminder, the pIC50 is the IC50 on a negative log10 scale, so that one unit is a factor of ten.

SMILES strings stand for the structures. pIC50: −log10 of the molar value.

The experiment deals with T1, human clotting factor VIIa (Homo sapiens, UniProt P08709).
T1 construct: a human clotting factor VIIa (hereinafter, “Factor VIIa”) purified sample; purchased Enzyme Research Laboratories HFVIIa
T1 sequence (P08709 213-466 limits assumed): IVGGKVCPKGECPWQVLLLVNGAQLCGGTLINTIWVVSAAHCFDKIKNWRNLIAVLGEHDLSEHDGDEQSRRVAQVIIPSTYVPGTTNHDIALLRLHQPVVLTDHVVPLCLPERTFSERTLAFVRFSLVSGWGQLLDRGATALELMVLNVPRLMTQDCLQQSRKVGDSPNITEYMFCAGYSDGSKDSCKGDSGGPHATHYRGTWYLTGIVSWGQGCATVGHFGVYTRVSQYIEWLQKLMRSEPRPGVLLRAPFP
T1 sequence (P08709 61-212 limits assumed): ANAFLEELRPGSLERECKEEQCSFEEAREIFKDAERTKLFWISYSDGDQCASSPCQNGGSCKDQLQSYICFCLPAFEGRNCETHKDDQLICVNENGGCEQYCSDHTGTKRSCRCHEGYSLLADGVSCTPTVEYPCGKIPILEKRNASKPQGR
T1 sequence (P13726 33-295 partner): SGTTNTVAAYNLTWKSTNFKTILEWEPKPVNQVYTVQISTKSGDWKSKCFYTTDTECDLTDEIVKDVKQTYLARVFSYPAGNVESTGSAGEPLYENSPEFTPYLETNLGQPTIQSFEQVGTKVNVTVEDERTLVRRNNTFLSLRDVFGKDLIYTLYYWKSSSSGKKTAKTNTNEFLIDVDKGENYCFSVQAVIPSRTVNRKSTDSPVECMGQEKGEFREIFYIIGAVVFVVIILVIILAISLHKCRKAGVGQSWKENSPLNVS
Description: Inhibitory activity against clotting factor VIIa (chromogenic substrate Spectrozyme FVIIa, TF/Factor VIIa enzyme solution). The format is biochemical. The note with it: human Factor VIIa 5 nmol/L with human TF 10 nmol/L, room temperature 40 minutes, 405 nm. Summed up:
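Human Factor VIIa (5 nmol/L) with human TF (10 nmol/L) in Tris-BSA buffer pH 7.4 containing 15 mmol/L CaCl2 and cephalin, with Spectrozyme FVIIa substrate. Reaction 40 min at room temperature; 4-nitroanilide read at 405 nm. IC50 by non-linear regression over 100 μmol/L–0.1 nmol/L.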

The compound `COc1cc(C(Nc2ccc(C(=N)N)cc2)c2nn(-c3cnccn3)c(=O)[nH]2)cc2c1OCOC2` (racemic) [Example 102, 4-{[(R) and (S)-(8-methoxy-4H-benzo[1,3]dioxin-6-yl)-(5-oxo-1-pyrazin-2-yl-4,5-dihydro-1H-[1,2,4]triazol-3-yl)methyl]amino}benzamidine acetate] showed a pIC50 of 7.94. For `COc1cc(OCF)c(F)c(C(Nc2ccc(C(=N)N)cc2)c2nn(-c3ncccn3)c(=O)[nH]2)c1` (racemic) [Example 103, 4-{[(R) and (S)-(2-fluoro-3-fluoromethoxy-5-methoxyphenyl)-(5-oxo-1-pyrimidin-2-yl-4,5-dihydro-1H-[1,2,4]triazol-3-yl)methyl]amino}benzamidine acetate] the value was 8.05. In the case of `COc1cc(OCF)cc(C(Nc2ccc(C(=N)N)cc2)c2nn(-c3ncccn3)c(=O)[nH]2)c1` (racemic) [Example 104, 4-{[(R) and (S)-(3-fluoromethoxy-5-methoxyphenyl)-(5-oxo-1-pyrimidin-2-yl-4,5-dihydro-1H-[1,2,4]triazol-3-yl)methyl]amino}benzamidine acetate] it was 8.05; in that of `COC(=O)c1ccccc1-n1nc(C(Nc2ccc(C(=N)N)cc2)c2cc(OC)c(OC)cc2F)[nH]c1=O` (racemic) [Example 108, (R) and (S)-2-{3-[(4-carbamimidoylphenylamino)-(2-fluoro-4,5-dimethoxyphenyl)methyl]-5-oxo-4,5-dihydro-[1,2,4]triazol-1-yl}benzoic acid methyl ester acetate], 8.10; in that of `COc1cc(F)c(C(Nc2ccc(C(=N)N)cc2)c2nn(-c3ccccc3C(N)=O)c(=O)[nH]2)cc1OC` (racemic) [Example 109, (R) and (S)-2-{3-[(4-carbamimidoylphenylamino)-(2-fluoro-4,5-dimethoxyphenyl)methyl]-5-oxo-4,5-dihydro-1H-[1,2,4]triazol-1-yl}benzamide acetate], 8.10. Compound `COc1ccc(C(Nc2ccc(C(=N)N)cc2)c2nn(-c3ccccc3C(N)=O)c(=O)[nH]2)cc1OC` (racemic) [Example 110, (R) and (S)-2-{3-[(4-carbamimidoylphenylamino)-(3,4-dimethoxyphenyl)methyl]-5-oxo-4,5-dihydro-1H-[1,2,4]triazol-1-yl}benzamide acetate] had a pIC50 of 8.18. In turn, `COc1cc(F)c(C(Nc2ccc(C(=N)N)cc2)c2nn(-c3ncccn3)c(=O)[nH]2)cc1OC` (racemic) [Example 111, 4-{[(R) and (S)-(2-fluoro-4,5-dimethoxyphenyl)-(5-oxo-1-pyrimidin-2-yl-4,5-dihydro-1H-[1,2,4]triazol-3-yl)methyl]amino}benzamidine acetate] showed a pIC50 of 7.95. For `CCOc1cc(C(Nc2ccc(C(=N)N)cc2)c2nn(-c3ncccn3)c(=O)[nH]2)c(F)cc1OC` (racemic) [Example 115, (R) and (S)-4-{[(5-ethoxy-2-fluoro-4-methoxyphenyl)-(5-oxo-1-pyrimidin-2-yl-4,5-dihydro-1H-[1,2,4]triazol-3-yl)methyl]amino}benzamidine acetate] the value was 7.94; for `COc1cc(C(Nc2ccc(C(=N)N)cc2)c2nn(-c3ncccn3)c(=O)[nH]2)cc(F)c1OC` (racemic) [Example 116, (R) and (S)-4-{[(3-fluoro-4,5-dimethoxyphenyl)-(5-oxo-1-pyrimidin-2-yl-4,5-dihydro-1H-[1,2,4]triazol-3-yl)methyl]amino}benzamidine acetate], 7.92; for `COc1ccc(C(Nc2ccc(C(=N)N)cc2)c2nn(-c3ncccn3)c(=O)[nH]2)cc1OCCF` (racemic) [Example 117, (R) and (S)-4-({[3-(2-fluoroethoxy)-4-methoxyphenyl]-(5-oxo-1-pyrimidin-2-yl-4,5-dihydro-1H-[1,2,4]triazol-3-yl)methyl}amino)benzamidine acetate], 7.65. For `C=CCOc1cc(C(Nc2ccc(C(=N)N)cc2)c2nn(-c3ncccn3)c(=O)[nH]2)ccc1OC` (racemic) [Example 118, (R) and (S)-4-{[(3-allyloxy-4-methoxyphenyl)-(5-oxo-1-pyrimidin-2-yl-4,5-dihydro-1H-[1,2,4]triazol-3-yl)methyl]amino}benzamidine acetate] the value was 8.14. On to `COc1cc(F)c(C(Nc2ccc(C(=N)N)cc2)c2nn(-c3cccnn3)c(=O)[nH]2)cc1OC` (racemic) [Example 119, (R) and (S)-4-{[(2-fluoro-4,5-dimethoxyphenyl)-(5-oxo-1-pyridazin-3-yl-4,5-dihydro-1H-[1,2,4]triazol-3-yl)methyl]amino}benzamidine acetate], for which the pIC50 was 8.15.

`CCOc1cc(C(Nc2ccc(C(=N)N)cc2)c2nn(-c3cccnn3)c(=O)[nH]2)ccc1OC` (racemic) [Example 121, (R) and (S)-4-{[(3-ethoxy-4-methoxyphenyl)-(5-oxo-1-pyridazin-3-yl-4,5-dihydro-1H-[1,2,4]triazol-3-yl)methyl]amino}benzamidine acetate] showed a pIC50 of 8.17.

With `CCOc1cc(C(Nc2ccc(C(=N)N)cc2)c2nn(-c3ccccc3C(=O)O)c(=O)[nH]2)c(F)cc1OC` (racemic) [Example 122, (R) and (S)-2-{3[(4-carbamimidoylphenylamino)-(5-ethoxy-2-fluoro-4-methoxyphenyl)methyl]-5-oxo-4,5-dihydro-[1,2,4]triazol-1-yl}benzoic acid acetate], the negative logarithm of the IC50 (pIC50) is 8.70. As for `COc1cc(C(Nc2ccc(C(=N)N)cc2)c2nn(-c3ncccc3F)c(=O)[nH]2)cc2c1OCC2` (racemic) [Example 123, (R) and (S)-4-({[1-(3-fluoropyridin-2-yl)-5-oxo-4,5-dihydro-1H-[1,2,4]triazol-3-yl]-(7-methoxy-2,3-dihydrobenzofuran-5-yl)methyl}amino)benzamidine acetate], the pIC50 is 8.34. In the case of `COCCc1cc(C(Nc2ccc(C(=N)N)cc2)c2nn(-c3ncccn3)c(=O)[nH]2)cc(OC)c1OC` (racemic) [Example 129, (R) and (S)-4-({[3,4-dimethoxy-5-(2-methoxyethyl)-phenyl]-(5-oxo-1-pyrimidin-2-yl-4,5-dihydro-1H-[1,2,4]triazol-3-yl)methyl}amino)benzamidine acetate] it was 8.12. In turn, `COc1cc(C(Nc2ccc(C(=N)N)cc2)c2nn(-c3ncccn3)c(=O)[nH]2)cc2c1OCOCC2` (racemic) [Example 130, (R) and (S)-4-{[(4-methoxy-8,9-dihydro-5,7-dioxabenzocyclohepten-2-yl)-(5-oxo-1-pyrimidin-2-yl-4,5-dihydro-1H-[1,2,4]triazol-3-yl)methyl]amino}benzamidine acetate] showed a negative logarithm of the IC50 (pIC50) of 7.97. In the case of `COc1cc(C(Nc2ccc(C(=N)N)cc2)c2nn(-c3ncccn3)c(=O)[nH]2)cc(CC#N)c1F` (racemic) [Example 131, (R) and (S)-4-{[(3-cyanomethyl-4-fluoro-5-methoxyphenyl)-(5-oxo-1-pyrimidin-2-yl-4,5-dihydro-1H-[1,2,4]triazol-3-yl)methyl]amino}benzamidine acetate] it was 8.25; in that of `CCOc1cc(C(Nc2ccc(C(=N)N)cc2)c2nn(-c3ncccc3F)c(=O)[nH]2)ccc1OC` (racemic) [Example 132, (R) and (S)-4-({(3-ethoxy-4-methoxyphenyl)-[1-(3-fluoro-pyridin-2-yl)-5-oxo-4,5-dihydro-1H-[1,2,4]triazol-3-yl]methyl}amino}benzamidine acetate], 8.62; in that of `COc1cc(C(Nc2ccc(C(=N)N)cc2)c2nn(-c3ncccc3F)c(=O)[nH]2)cc2c1OCOC2` (racemic) [Example 133, (R) and (S)-4-({[1-(3-fluoropyridin-2-yl)-5-oxo-4,5-dihydro-1H-[1,2,4]triazol-3-yl]-(8-methoxy-4H-benzo[1,3]dioxin-6-yl)methyl}amino)benzamidine acetate], 8.20. In the case of `COc1cc(OCCF)c(F)c(C(Nc2ccc(C(=N)N)cc2)c2nn(-c3ncccc3N)c(=O)[nH]2)c1` (racemic) [Example 136, (R) and (S)-4-({[1-(3-aminopyridin-2-yl)-5-oxo-4,5-dihydro-1H-[1,2,4]triazol-3-yl]-[2-fluoro-3-(2-fluoroethoxy)-5-methoxyphenyl]methyl}amino)benzamidine acetate] it was 8.29.

`COc1cc(OC)c(F)c(C(Nc2ccc(C(=N)N)cc2)c2nn(-c3ncccc3N)c(=O)[nH]2)c1` (racemic) [Example 137, (R) and (S)-4-({[1-(3-aminopyridin-2-yl)-5-oxo-4,5-dihydro-1H-[1,2,4]triazol-3-yl]-(2-fluoro-3,5-dimethoxyphenyl)methyl}amino)benzamidine acetate]: the pIC50 was 7.99. In the case of `COc1cc(F)c(C(Nc2ccc(C(=N)N)c(F)c2)c2nn(-c3ncccn3)c(=O)[nH]2)cc1OC` (racemic) [Example 143, (R) and (S)-2-fluoro-4-{[(2-fluoro-4,5-dimethoxyphenyl)-(5-oxo-1-pyrimidin-2-yl-4,5-dihydro-1H-[1,2,4]triazol-3-yl)methyl]amino}benzamidine acetate] it was 7.64; in that of `COc1cc(C(Nc2ccc(C(=N)N)cc2)c2nn(-c3cccnn3)c(=O)[nH]2)ccc1OCC#N` (racemic) [Example 144, (R) and (S)-4-{[(4-cyanomethoxy-3-methoxyphenyl)-(5-oxo-1-pyridazin-3-yl-4,5-dihydro-1H-[1,2,4]triazol-3-yl)methyl]amino}benzamidine acetate], 8.11. Take `COc1cc(OC)c(F)c(C(Nc2ccc(C(=N)N)cc2)c2nn(-c3cccnn3)c(=O)[nH]2)c1` (racemic) [Example 145, (R) and (S)-4-{[(2-fluoro-3,5-dimethoxyphenyl)-(5-oxo-1-pyridazin-3-yl-4,5-dihydro-1H-[1,2,4]triazol-3-yl)methyl]amino}benzamidine acetate]: the pIC50 is 8.06.
